Reference: patent publication US20240116985A1, “STAPLED PEPTIDES AND METHODS THEREOF” (priority 2020, published 2024)

Assays:
[1] = target: T1, full-length beta-Catenin (Uniprot ID P35222) (Homo sapiens, UniProt P35222); assay: Fluorescence polarization IC50 (beta-catenin / 5FAM-TCF4 10-53 competition); assay type: binding; details: fluorescence polarization; read-out: beta-Catenin FP IC50
T1 construct: 10 nM full-length beta-Catenin (Uniprot ID P35222)
T1 sequence (P35222 1-781): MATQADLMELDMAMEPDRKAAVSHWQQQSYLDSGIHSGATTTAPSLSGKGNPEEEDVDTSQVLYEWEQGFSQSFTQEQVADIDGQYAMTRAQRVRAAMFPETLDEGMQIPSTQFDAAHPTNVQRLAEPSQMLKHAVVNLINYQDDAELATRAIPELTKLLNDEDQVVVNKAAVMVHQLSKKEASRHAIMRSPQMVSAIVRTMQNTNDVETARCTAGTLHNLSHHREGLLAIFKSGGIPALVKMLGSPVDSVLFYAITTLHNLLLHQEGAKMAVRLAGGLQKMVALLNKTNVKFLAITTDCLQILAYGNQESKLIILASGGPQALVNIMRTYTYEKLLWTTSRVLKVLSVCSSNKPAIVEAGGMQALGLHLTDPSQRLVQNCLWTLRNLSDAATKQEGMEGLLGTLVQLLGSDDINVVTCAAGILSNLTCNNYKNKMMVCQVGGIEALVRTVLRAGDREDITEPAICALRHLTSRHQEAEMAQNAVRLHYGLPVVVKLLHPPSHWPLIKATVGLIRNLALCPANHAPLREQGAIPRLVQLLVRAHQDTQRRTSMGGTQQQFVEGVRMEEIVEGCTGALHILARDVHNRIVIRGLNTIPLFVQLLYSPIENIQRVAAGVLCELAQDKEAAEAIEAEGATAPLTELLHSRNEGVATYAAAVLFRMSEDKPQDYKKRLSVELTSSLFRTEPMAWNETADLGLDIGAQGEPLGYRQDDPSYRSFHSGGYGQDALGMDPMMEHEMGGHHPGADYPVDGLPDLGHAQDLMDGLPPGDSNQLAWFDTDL

[2] = target: T2, beta-catenin/TCF4 engagement (Homo sapiens, UniProt P35222); assay: Nano-BRET target engagement assay (B-cat-Halo & TCF4-Luc in HEK293 cells); assay type: cell-based; details: absolute IC50; read-out: NanoBRET Abs IC50
T2 construct: expressed in transfected cells; host or cells: HEK293
T2 sequence (P35222 1-781): T1 sequence (P35222 1-781)

Compound	IC50 [1] [µM]	IC50 [2] [µM]
CC(=O)N1CCC[C@]12CC=CCCCC1(CCCC=CCCCOC(=O)N3CC[C@@](C(=O)N[C@@H](Cc4ccsc4)C(=O)N[C@@H](Cc4csc5ccccc45)C(=O)N[C@@H](CCC(=O)N4CC[C@@H](N(C)C)C4)C(N)=O)(C3)NC(=O)[C@H](CC(C)C)NC(=O)[C@H](Cc3ccccc3)NC(=O)[C@H](C)NC(=O)[C@H](C)NC(=O)[C@H](CN(CC(=O)O)CC(F)(F)F)NC(=O)[C@H](CC(=O)O)NC1=O)NC(=O)[C@H](CC(C)(C)C)NC(=O)[C@H](CC(=O)O)NC2=O (stereo partly drawn) [I-1804, Ac-PL3-Asp-Npg-B5-Asp-TfeGA-Ala-Ala-Phe-Leu-PyrS2-3Thi-BztA-[RDMAPyr]GlnR-NH2]	0.008	9.4
CC(=O)N1CCC[C@]12CC=CCCCC1(CCCC=CCCCOC(=O)N3CC[C@@](C(=O)N[C@@H](Cc4ccsc4)C(=O)N[C@@H](Cc4csc5ccccc45)C(=O)N[C@@H](CCC(N)=O)C(N)=O)(C3)NC(=O)[C@H](CC(C)C)NC(=O)[C@H](Cc3ccccc3)NC(=O)[C@H](C)NC(=O)[C@H](C)NC(=O)[C@H](CN(C)CC(=O)O)NC(=O)[C@H](CC(=O)O)NC1=O)NC(=O)[C@H](CC(C)(C)C)NC(=O)[C@H](CC(=O)O)NC2=O (stereo partly drawn) [I-1631, Ac-PL3-Asp-Npg-B5-Asp-[Me]GA-Ala-Ala-Phe-Leu-PyrS2-3Thi-BztA-Gln-NH2]	0.01	30.1
CC(=O)N1CCC[C@]12CC=CCCCC1(CCCC=CCCCCCC[C@@](C)(C(=O)N[C@@H](Cc3ccccc3)C(=O)N[C@@H](Cc3csc4ccccc34)C(=O)N[C@@H](CCC(N)=O)C(N)=O)NC(=O)[C@H](CCC(N)=O)NC(=O)[C@H](Cc3ccccc3)NC(=O)[C@H](C)NC(=O)[C@H](C)NC(=O)[C@H](CCC(=O)O)NC(=O)[C@H](CC(=O)O)NC1=O)NC(=O)[C@H](CC(N)=O)NC(=O)[C@H](CC(=O)O)NC2=O (stereo partly drawn) [I-1531, Ac-PL3-Asp-Asn-B5-Asp-Glu-Ala-Ala-Phe-Gln-S8-Phe-BztA-Gln-NH2]	0.084	> 20
CC(=O)N1CCC[C@]12CC=CCCCC1(CCCC=CCCCOC(=O)N3CC[C@@](C(=O)N[C@@H](Cc4ccsc4)C(=O)N[C@@H](Cc4csc5ccccc45)C(=O)N[C@@H](CCC(N)=O)C(=O)N[C@@H](CCCCNC(=O)COCCOCCNC(=O)C45CC6(C)CC(C)(CC(C)(C6)C4)C5)C(N)=O)(C3)NC(=O)[C@H](CC(C)C)NC(=O)[C@H](Cc3ccccc3)NC(=O)[C@H](C)NC(=O)[C@H](C)NC(=O)[C@H](CC(=O)O)NC(=O)[C@H](CC(=O)O)NC1=O)NC(=O)[C@H](CC(C)(C)C)NC(=O)[C@H](CC(=O)O)NC2=O (stereo partly drawn) [I-1480, Ac-PL3-Asp-Npg-B5-Asp-Asp-Ala-Ala-Phe-Leu-PyrS2-3Thi-BztA-Gln-Me3AdamantC-PEG2]-Lys-NH2]	0.037	9.3
CC(=O)N1CCC[C@]12CC=CCCCC1(CCCC=CCCCOC(=O)N3CC[C@@](C(=O)N[C@@H](Cc4ccsc4)C(=O)N[C@@H](Cc4csc5ccccc45)C(=O)N[C@@H](CCC(N)=O)C(=O)N[C@H](CO)Cc4ccccc4)(C3)NC(=O)[C@H](CC(C)C)NC(=O)[C@H](Cc3ccccc3)NC(=O)[C@H](C)NC(=O)[C@H](C)NC(=O)[C@H](CN(CC(=O)O)CC(F)(F)F)NC(=O)[C@H](CC(=O)O)NC1=O)NC(=O)[C@H](CC(C)(C)C)NC(=O)[C@H](CC(=O)O)NC2=O (stereo partly drawn) [I-1680, Ac-PL3-Asp-Npg-B5-Asp-TfeGA-Ala-Ala-Phe-Leu-PyrS2-3Thi-BztA-Gln-Pheo1]	0.0805	12.5
CC(=O)N1CCC[C@]12CC=CCCCC1(CCCC=CCCCOC(=O)N3CC[C@@](C(=O)N[C@@H](Cc4ccsc4)C(=O)N[C@@H](Cc4csc5ccccc45)C(=O)N[C@@H](CC(C)C)C(N)=O)(C3)NC(=O)[C@H](CC(C)C)NC(=O)[C@H](Cc3ccccc3)NC(=O)[C@H](C)NC(=O)[C@H](C)NC(=O)[C@H](CC(=O)O)NC(=O)[C@H](CC(=O)O)NC1=O)NC(=O)[C@H](CC(C)(C)C)NC(=O)[C@H](CC(=O)O)NC2=O (stereo partly drawn) [I-1409, Ac-PL3-Asp-Npg-B5-Asp-Asp-Ala-Ala-Phe-Leu-PyrS2-3Thi-BztA-Leu-NH2]	0.074	24
CC(=O)N1CCC[C@]12CC=CCCCC1(CCCC=CCCCOC(=O)N3CC[C@@](C(=O)N[C@@H](Cc4ccsc4)C(=O)N[C@@H](Cc4csc5ccccc45)C(=O)N[C@@H](CCC(=O)N4CCC(N5CCN(C)CC5)CC4)C(N)=O)(C3)NC(=O)[C@H](CC(C)C)NC(=O)[C@H](Cc3ccccc3)NC(=O)[C@H](C)NC(=O)[C@H](C)NC(=O)[C@H](CN(CC(=O)O)CC(F)(F)F)NC(=O)[C@H](CC(=O)O)NC1=O)NC(=O)[C@H](CC(C)(C)C)NC(=O)[C@H](CC(=O)O)NC2=O (stereo partly drawn) [I-1802, Ac-PL3-Asp-Npg-B5-Asp-TfeGA-Ala-Ala-Phe-Leu-PyrS2-3Thi-BztA-[4MePpzPip]GlnR-NH2]	0.011	25.2
CC(=O)N1CCC[C@]12CCCCCCC1(CCCCCCCCOC(=O)N3CC[C@@](C(=O)N[C@@H](CC4CCCC4)C(=O)N[C@@H](Cc4csc5ccccc45)C(=O)N[C@@H](CCC(N)=O)C(N)=O)(C3)NC(=O)[C@H](CC(C)C)NC(=O)[C@H](Cc3ccccc3)NC(=O)[C@H](C)NC(=O)[C@H](C)NC(=O)[C@H](CN(CC(=O)O)CC(F)(F)F)NC(=O)[C@H](CC(=O)O)NC1=O)NC(=O)[C@H](CC(C)(C)C)NC(=O)[C@H](CC(=O)O)NC2=O (stereo partly drawn) [I-1713, Ac-PL3-Asp-Npg-B5-Asp-TfeGA-Ala-Ala-Phe-Leu-PyrS2-CypA-BztA-Gln-NH2]	0.498	> 20

Now from value to compound:

IC50 [1] [µM]	IC50 [2] [µM]	Compound
0.006	17.7	CC(=O)N1CCC[C@]12CC=CCCCC1(CCCC=CCCCOC(=O)N3CC[C@@](C(=O)N[C@@H](Cc4ccccc4C(F)(F)F)C(=O)N[C@@H](Cc4csc5ccccc45)C(=O)N[C@@H](C)C(N)=O)(C3)NC(=O)[C@H](CC(C)C)NC(=O)[C@H](Cc3ccccc3)NC(=O)[C@H](C)NC(=O)[C@H](CCC(=O)N3CCN(CCCN(C)C)CC3)NC(=O)[C@H](Cc3cccc(C(=O)O)c3)NC(=O)[C@H](CC(=O)O)NC1=O)NC(=O)[C@H](CC(C)(C)C)NC(=O)[C@H](CC(=O)O)NC2=O (stereo partly drawn) [I-2323, Ac-PL3-Asp-Npg-B5-Asp-3COOHF-[Me2NPrPip]GlnR-Ala-Phe-Leu-PyrS2-2F3MeF-BztA-Ala-NH2]
0.007	7.1	CC(=O)N1CCC[C@]12CC=CCCCC1(CCCC=CCCCOC(=O)N3CC[C@@](C(=O)N[C@@H](Cc4ccsc4)C(=O)N[C@@H](Cc4ccc(F)c(Br)c4)C(=O)N[C@@H](CCC(N)=O)C(N)=O)(C3)NC(=O)[C@H](CC(C)C)NC(=O)[C@H](Cc3ccccc3)NC(=O)[C@H](C)NC(=O)[C@H](C)NC(=O)[C@H](Cc3cccc(C(=O)O)c3)NC(=O)[C@H](CC(=O)O)NC1=O)NC(=O)[C@H](CC(C)(C)C)NC(=O)[C@H](CC(=O)O)NC2=O (stereo partly drawn) [I-2287, Ac-PL3-Asp-Npg-B5-Asp-3COOHF-Ala-Ala-Phe-Leu-PyrS2-3Thi-3Br4FF-Gln-NH2]
0.041	> 20	CC(=O)N1CCC[C@]12CCCCCCC1(CCCCCCOC(=O)N3CC[C@@](C(=O)N[C@@H](Cc4ccsc4)C(=O)N[C@@H](Cc4csc5ccccc45)C(=O)N[C@@H](CCC(N)=O)C(N)=O)(C3)NC(=O)[C@H](CC(N)=O)NC(=O)[C@H](Cc3ccccc3)NC(=O)[C@H](C)NC(=O)[C@H](C)NC(=O)[C@H](CC(=O)O)NC(=O)[C@H](CC(=O)O)NC1=O)NC(=O)[C@H](CC(C)(C)C)NC(=O)[C@H](CC(=O)O)NC2=O (stereo partly drawn) [I-1823, Ac-PL3-Asp-Npg-B5-Asp-Asp-Ala-Ala-Phe-Asn-PyrS-3Thi-BztA-Gln-NH2]
0.014	7.9	CC(=O)N1CCC[C@]12CC=CCCCC1(CCCC=CCCCOC(=O)N3CC[C@@](C(=O)N[C@@H](Cc4ccccc4C(F)(F)F)C(=O)N[C@@H](Cc4ccc(F)c(Br)c4)C(=O)N[C@@H](C)C(N)=O)(C3)NC(=O)[C@H](CC(C)C)NC(=O)[C@H](Cc3ccccc3)NC(=O)[C@H](C)NC(=O)[C@H](CCC(N)=O)NC(=O)[C@H](Cc3cccc(C(=O)O)c3)NC(=O)[C@H](CC(=O)O)NC1=O)NC(=O)[C@H](CC(C)(C)C)NC(=O)[C@H](CC(=O)O)NC2=O (stereo partly drawn) [I-2290, Ac-PL3-Asp-Npg-B5-Asp-3COOHF-Gln-Ala-Phe-Leu-PyrS2-2F3MeF-3Br4FF-Ala-NH2]
0.014	> 20	CC(=O)N1CCC[C@]12CC=CCCCC1(CCCC=CCCCOC(=O)N3CC[C@@](C(=O)N[C@@H](Cc4ccsc4)C(=O)N[C@@H](Cc4csc5ccccc45)C(=O)N[C@@H](CCC(N)=O)C(N)=O)(C3)NC(=O)[C@H](CC(C)C)NC(=O)[C@H](Cc3ccccc3)NC(=O)[C@H](C)NC(=O)[C@H](C)NC(=O)[C@H](CN(CC(=O)O)C(=O)CCCN(C)C)NC(=O)[C@H](CC(=O)O)NC1=O)NC(=O)[C@H](CC(C)(C)C)NC(=O)[C@H](CC(=O)O)NC2=O (stereo partly drawn) [I-2233, Ac-PL3-Asp-Npg-B5-Asp-[NdiMeButC]GA-Ala-Ala-Phe-Leu-PyrS2-3Thi-BztA-Gln-NH2]
